We go through five molecules from article PMC8708872, “Discovery of a Novel Template, 7-Substituted 7-Deaza-4′-Thioadenosine Derivatives as Multi-Kinase Inhibitors” (Pharmaceuticals, 2021).

For one data set, the target named is T1, CYP1A2 (Homo sapiens, UniProt P05177).
T1 construct: Human liver microsomes (0.25 mg/mL); from tissue; host or cells: human liver microsomes
As to the kind of experiment: CYP inhibition assay. Format: in vitro ADME. The settings on record: human, human liver microsomes, pH 7.4, probe Phenacetin 50 μM (in a cocktail of five substrates); inhibitor 0.1 μM; read-out: Percentage of enzyme remaining after inhibition, CYP1A2. How it is done: (§1) Human liver microsomes (0.25 mg/mL), 0.1 M phosphate buffer (pH 7.4), a cocktail of five […] substrates (Phenacetin 50 μM, Diclofenac 10 μM, S-mephenytoin 100 μM, Dextromethorphan 5 μM, Midazolam 2.5 μM), and test compound (10 μM concentration) was pre-incubated for 5 min at 37 °C. NADPH generation system solution was added and incubated for 15 min at 37 °C. In order to terminate the reaction, acetonitrile solution containing an internal standard (Terfenadine) was added and centrifuged for 5 min (14,000× g […], 4 °C). The supernatant was injected into the LC-MS/MS system to analyze the metabolites of the substrates simultaneously. Metabolites of each substrate produced during the reaction were analyzed using the Shimadzu Nexera XR system and TSQ vantage (Thermo). Kinetex C18 column (2.1 × 100 mm, 2.6 μm particle size; Phenomenex, USA) was used for HPLC. The mobile phase used contained 0.1% formic acid in distilled water (A) and 0.1% formic acid containing acetonitrile (B). The generated metabolites were quantified using MRM (Multiple Reaction Monitoring) and Xcalibur (version 1.6.1) was used for data analysis.

In a further data set the target is T2, CYP2C19 (Homo sapiens, UniProt P33261).
T2 construct: Human liver microsomes (0.25 mg/mL); from tissue; host or cells: human liver microsomes
As to the kind of experiment: CYP inhibition assay. The data set is classed as in vitro ADME. The settings on record: human, human liver microsomes, pH 7.4, probe S-mephenytoin 100 μM (in a cocktail of five substrates); inhibitor 0.1 μM; read-out: Percentage of enzyme remaining after inhibition, CYP2C19. As to the method: as §1
(Liver microsomes are vesicles of endoplasmic reticulum, rich in cytochrome P450 enzymes.)

The next data set addresses T3, CYP2C9 (Homo sapiens, UniProt P11712).
T3 construct: Human liver microsomes (0.25 mg/mL); from tissue; host or cells: human liver microsomes
As to the kind of experiment: CYP inhibition assay. Format: in vitro ADME. The settings on record: human, human liver microsomes, pH 7.4, probe Diclofenac 10 μM (in a cocktail of five substrates); inhibitor 0.1 μM; read-out: Percentage of enzyme remaining after inhibition, CYP2C9. As to the method: as §1

The subject of another data set is A549. Briefly: SRB cell proliferation inhibition assay. The data set is classed as cell-based. The settings on record: human lung cancer cells, 72 h. How it is done: (§2) Human lung cancer cells (A549), colorectal cancer (HCT116) cells, breast cancer cells (MDA-MB-231), liver cancer cells (SK-HEP-1), and prostate cancer cells (PC-3) were purchased from the American Type Culture Collection (Manassas, VA, USA). Human gastric cancer cells (SNU-638) were purchased from the Korean Cell Line Bank (Seoul, Korea). Cells were cultured in medium (Dulbecco’s modified Eagle’s medium for MDA-MB-231 and SK-HEP-1 cells; Roswell Park Memorial Institute 1640 for A549, HCT116, SNU-638, PC-3 cells) supplemented with penicillin-streptomycin and 10% fetal bovine serum at 37 °C in a humidified incubator with 5% carbon dioxide. Cells were seeded at a density of 4–7 × 10^4 cells/mL in 96-well culture plates, and then treated with indicated compounds for 72 h. At the end of the experiment, cells were fixed with 10% trichloroacetic acid (TCA) solution and subjected to sulforhodamine B (SRB) assay to determine cell proliferation. The percentage of cell proliferation was calculated with the following formula:Cell proliferation (%) = 100 × [(A treated − A zero day)/(A control − A zero day)], where A is the average absorbance. The IC50 values were calculated through non-linear regression analysis using TableCurve 2D v5.01 (Systat Software Inc., San Jose, CA, USA). All experiments were performed in triplicate and data shown are representative of two or three independent experiments.

For the next data set, the system named is HCT116. As to the kind of experiment: SRB cell proliferation inhibition assay. The settings on record: HCT-116, human colon cancer cells, 72 h. Format: cell-based. As to the method:
as §2

The test system of another data set is MDA-MB-231. As to the kind of experiment: SRB cell proliferation inhibition assay. The data set is classed as cell-based. To be noted: human breast cancer cells, 72 h. How it is done:
as §2

A further data set relates to PC-3. As to the kind of experiment: SRB cell proliferation inhibition assay. Format: cell-based. To be noted: human prostate cancer cells, 72 h. As to the method:
as §2

The next data set relates to SK-HEP-1. Briefly: SRB cell proliferation inhibition assay. Format: cell-based. The settings on record: SK-HEP1, human liver cancer cells, 72 h. How it is done: as §2
For the next data set, the system named is SNU638. Briefly: SRB cell proliferation inhibition assay. The settings on record: SNU-638, human stomach cancer cells, 72 h. The data set is classed as cell-based. As to the method: as §2
Another data set has as its target T4, TRKA (Homo sapiens, UniProt P04629).
T4 construct: purchased Eurofins DiscoverX Corporation
As to the kind of experiment: Kinase inhibition profile, KINOMEscan 11-point dose response. The data set is classed as binding. The settings on record: for IC50: 11-point 3-fold serial dilution; for Ki: by Cheng-Prusoff equation.

A further data set has as its target T5, CK1δ (Homo sapiens, UniProt P48730).
T5 construct: purchased Eurofins DiscoverX Corporation
The data set is described as above. Format: binding. To be noted: for IC50: 11-point 3-fold serial dilution; for Ki: by Cheng-Prusoff equation.

The target of another data set is T6, DYRK1A (Homo sapiens, UniProt Q13627).
T6 construct: purchased Eurofins DiscoverX Corporation
The data set is described as above. The data set is classed as binding. To be noted: for IC50: 11-point 3-fold serial dilution; for Ki: by Cheng-Prusoff equation.

The target in a further data set is T7, DYRK1B (Homo sapiens, UniProt Q9Y463).
T7 construct: purchased Eurofins DiscoverX Corporation
The description is as above. Format: binding. To be noted: for IC50: 11-point 3-fold serial dilution; for Ki: by Cheng-Prusoff equation.

Another data set has as its system KM12. Briefly: Antiproliferative activity against KM12. Format: cell-based. To be noted: Homo sapiens, colon cancer cell line highly expressing NTRK1/2/3 and DYRK3, read-out: IC50 cell growth of KM12.
The subject of a further data set is ACHN. As to the kind of experiment: Antiproliferative activity against ACHN. The data set is classed as cell-based. To be noted: Homo sapiens, renal cancer cell line expressing CK1δ and DYRK2, read-out: IC50 cell growth of ACHN.

T4 sequence (P04629 33-796): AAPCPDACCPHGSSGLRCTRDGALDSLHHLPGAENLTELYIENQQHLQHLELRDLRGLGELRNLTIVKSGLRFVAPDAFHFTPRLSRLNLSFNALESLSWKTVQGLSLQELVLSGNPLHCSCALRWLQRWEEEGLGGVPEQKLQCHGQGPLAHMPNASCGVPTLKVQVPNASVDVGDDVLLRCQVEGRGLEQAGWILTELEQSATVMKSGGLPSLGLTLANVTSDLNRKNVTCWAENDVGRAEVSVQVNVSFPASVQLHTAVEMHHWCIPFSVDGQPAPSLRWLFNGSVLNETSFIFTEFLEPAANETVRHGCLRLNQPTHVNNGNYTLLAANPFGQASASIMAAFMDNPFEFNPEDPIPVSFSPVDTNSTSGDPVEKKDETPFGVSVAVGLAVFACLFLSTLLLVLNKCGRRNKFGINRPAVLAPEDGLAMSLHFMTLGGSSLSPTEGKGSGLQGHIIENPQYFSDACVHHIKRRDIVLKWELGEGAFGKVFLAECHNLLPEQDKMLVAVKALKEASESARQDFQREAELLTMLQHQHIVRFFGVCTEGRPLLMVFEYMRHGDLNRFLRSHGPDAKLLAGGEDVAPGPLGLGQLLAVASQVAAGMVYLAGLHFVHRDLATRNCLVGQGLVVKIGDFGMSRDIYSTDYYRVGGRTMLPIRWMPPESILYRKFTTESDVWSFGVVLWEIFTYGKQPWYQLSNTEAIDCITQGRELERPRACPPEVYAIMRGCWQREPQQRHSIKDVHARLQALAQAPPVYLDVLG
T7 sequence (Q9Y463 whole entry): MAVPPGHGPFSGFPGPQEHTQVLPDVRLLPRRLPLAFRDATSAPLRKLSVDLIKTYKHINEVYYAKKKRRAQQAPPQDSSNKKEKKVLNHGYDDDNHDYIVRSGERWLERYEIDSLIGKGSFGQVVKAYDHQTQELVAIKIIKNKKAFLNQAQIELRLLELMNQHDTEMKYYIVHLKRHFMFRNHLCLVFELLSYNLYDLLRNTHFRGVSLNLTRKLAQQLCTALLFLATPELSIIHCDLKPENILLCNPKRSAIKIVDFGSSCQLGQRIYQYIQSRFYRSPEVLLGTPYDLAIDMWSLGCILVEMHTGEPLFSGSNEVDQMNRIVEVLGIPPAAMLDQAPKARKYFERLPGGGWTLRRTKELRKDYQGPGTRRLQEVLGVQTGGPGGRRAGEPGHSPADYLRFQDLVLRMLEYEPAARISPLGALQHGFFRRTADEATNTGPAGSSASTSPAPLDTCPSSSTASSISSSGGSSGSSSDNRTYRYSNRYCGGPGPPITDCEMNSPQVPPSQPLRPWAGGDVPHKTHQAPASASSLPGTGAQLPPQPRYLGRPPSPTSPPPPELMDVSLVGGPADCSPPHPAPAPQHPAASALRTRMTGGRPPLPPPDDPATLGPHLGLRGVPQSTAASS
T5 sequence (P48730 whole entry): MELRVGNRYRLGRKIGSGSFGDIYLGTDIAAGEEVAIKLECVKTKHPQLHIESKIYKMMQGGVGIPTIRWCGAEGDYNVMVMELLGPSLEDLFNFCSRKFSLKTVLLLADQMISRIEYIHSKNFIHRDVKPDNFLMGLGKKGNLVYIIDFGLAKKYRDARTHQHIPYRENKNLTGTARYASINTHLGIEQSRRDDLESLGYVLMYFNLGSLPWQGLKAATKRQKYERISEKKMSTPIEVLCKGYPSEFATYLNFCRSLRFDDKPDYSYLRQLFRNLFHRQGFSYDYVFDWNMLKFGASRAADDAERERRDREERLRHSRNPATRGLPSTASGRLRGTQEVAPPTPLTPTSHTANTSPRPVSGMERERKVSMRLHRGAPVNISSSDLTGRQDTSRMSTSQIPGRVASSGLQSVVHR
T1 sequence (P05177 whole entry): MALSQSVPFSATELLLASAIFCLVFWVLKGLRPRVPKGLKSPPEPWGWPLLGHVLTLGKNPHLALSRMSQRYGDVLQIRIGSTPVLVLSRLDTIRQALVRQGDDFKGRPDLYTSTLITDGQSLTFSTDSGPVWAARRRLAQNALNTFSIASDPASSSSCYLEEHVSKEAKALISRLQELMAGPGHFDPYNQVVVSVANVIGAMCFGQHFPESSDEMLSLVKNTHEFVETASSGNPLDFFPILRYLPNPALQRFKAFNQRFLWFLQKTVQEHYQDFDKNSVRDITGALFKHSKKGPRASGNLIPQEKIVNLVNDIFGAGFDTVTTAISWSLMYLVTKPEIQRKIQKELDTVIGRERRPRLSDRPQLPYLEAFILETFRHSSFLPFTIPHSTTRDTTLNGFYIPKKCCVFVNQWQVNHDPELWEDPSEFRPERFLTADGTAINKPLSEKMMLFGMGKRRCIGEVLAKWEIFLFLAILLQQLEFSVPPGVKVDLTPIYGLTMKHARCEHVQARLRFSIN
T3 sequence (P11712 whole entry): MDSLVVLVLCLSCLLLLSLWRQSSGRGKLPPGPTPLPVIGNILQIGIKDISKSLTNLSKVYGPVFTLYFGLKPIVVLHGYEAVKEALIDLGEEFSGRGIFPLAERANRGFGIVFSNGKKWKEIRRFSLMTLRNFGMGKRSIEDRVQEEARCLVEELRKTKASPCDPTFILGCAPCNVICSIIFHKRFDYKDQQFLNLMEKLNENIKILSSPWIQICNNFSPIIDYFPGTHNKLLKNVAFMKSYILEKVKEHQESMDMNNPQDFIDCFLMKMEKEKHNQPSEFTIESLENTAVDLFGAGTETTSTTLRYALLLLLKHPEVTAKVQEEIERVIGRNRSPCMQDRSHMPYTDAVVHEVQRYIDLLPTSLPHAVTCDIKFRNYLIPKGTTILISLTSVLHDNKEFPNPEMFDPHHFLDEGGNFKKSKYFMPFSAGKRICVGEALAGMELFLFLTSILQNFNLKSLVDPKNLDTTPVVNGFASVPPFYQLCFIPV
T2 sequence (P33261 whole entry): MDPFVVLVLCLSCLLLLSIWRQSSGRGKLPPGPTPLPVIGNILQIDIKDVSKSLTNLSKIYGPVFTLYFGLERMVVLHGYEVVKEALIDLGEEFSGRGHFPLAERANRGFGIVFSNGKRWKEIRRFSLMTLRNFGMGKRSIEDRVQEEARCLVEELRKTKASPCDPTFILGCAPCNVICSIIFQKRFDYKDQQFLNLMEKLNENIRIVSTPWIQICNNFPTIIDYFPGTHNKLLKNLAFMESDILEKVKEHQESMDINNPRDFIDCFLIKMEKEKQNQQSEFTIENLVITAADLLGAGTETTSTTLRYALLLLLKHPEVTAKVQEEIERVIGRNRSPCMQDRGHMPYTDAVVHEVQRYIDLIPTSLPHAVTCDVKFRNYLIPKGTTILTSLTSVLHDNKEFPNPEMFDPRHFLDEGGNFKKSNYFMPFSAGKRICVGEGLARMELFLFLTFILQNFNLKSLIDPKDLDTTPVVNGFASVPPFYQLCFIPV

By share remaining is commonly meant what is left of the initial amount, in per cent. As for `CC(=O)N1CCN(c2ccc(OCC3COC(Cn4ccnc4)(c4ccc(Cl)cc4Cl)O3)cc2)CC1` (centres unmarked) [Ketoconazole, reference compound], the share remaining at 15 min, 0.1 μM on CYP1A2 was determined as 95.7%; at CYP2C19 it was 93.6%; on CYP2C9 it was 93.6%.
Broadly, the IC50 is the concentration at which inhibition is half-maximal. As usually defined, the Ki is a dissociation constant, usually derived from enzyme kinetics or from competition with a known ligand. A low value points to tighter binding. What is called melting point is the temperature, or range, at which the solid turns liquid. Molecule `CC#Cc1cn([C@@H]2S[C@H](CO)[C@@H](O)[C@H]2O)c2ncnc(N)c12` [Compound 1h, (2R,3R,4S,5R)-2-(4-Amino-5-(prop-1-yn-1-yl)-7H-pyrrolo[2,3-d]pyrimidin-7-yl)-5-(hydroxymethyl)tetrahydrothiophene-3,4-diol] came in with a melting point of 190 to 192 °C. The IC50 in the data set on A549 is greater than 50000 nM. Further, the IC50 in the data set on HCT116 was greater than 50000 nM. The IC50 in the data set with MDA-MB-231 was 45500 nM. In addition, the IC50 in the data set with PC-3 was greater than 50000 nM. This molecule came in with an IC50 in the data set on SK-HEP-1 of 6050 nM. The molecule also had an IC50 in the data set on SNU638 greater than 50000 nM. On TRKA, this molecule gave an IC50 of 293 nM and a Ki of 586 nM. At CK1δ, this molecule registered an IC50 of 970 nM and a Ki of 970 nM. On DYRK1A, this molecule gave an IC50 of 1260 nM and a Ki of 2510 nM. For the same molecule, at DYRK1B, the IC50 was 1070 nM and the Ki turned out to be 1070 nM.
Take `CCC#Cc1cn([C@@H]2S[C@H](CO)[C@@H](O)[C@H]2O)c2ncnc(N)c12` [Compound 1i, (2R,3R,4S,5R)-2-(4-Amino-5-(but-1-yn-1-yl)-7H-pyrrolo[2,3-d]pyrimidin-7-yl)-5-(hydroxymethyl)tetrahydrothiophene-3,4-diol]: the melting point fell in the range of 161 to 162 °C. Moreover, in the data set with A549, the IC50 was greater than 50000 nM. In the data set on HCT116, this molecule showed an IC50 greater than 50000 nM. The same molecule registered a half-maximal inhibitory concentration (IC50) in the data set on MDA-MB-231 greater than 50000 nM. This molecule also gave an IC50 in the data set on PC-3 greater than 50000 nM. The same molecule registered an IC50 in the data set on SK-HEP-1 greater than 50000 nM. Moreover, the IC50 with SNU638 was greater than 50000 nM. Further, at TRKA, the IC50 amounted to 573 nM and the Ki is 1150 nM. Moreover, on CK1δ, it took 430 nM to reach half-maximal inhibition (IC50) and the inhibition constant Ki is 430 nM. Moreover, at DYRK1A, the IC50 was found to be 2980 nM and the Ki was 5960 nM. In addition, on DYRK1B, inhibition was half-maximal at 1340 nM (IC50) and the Ki came to 1340 nM.
`Nc1ncnc2c1c(-c1ccccc1)cn2[C@@H]1S[C@H](CO)[C@@H](O)[C@H]1O` [Compound 1d, (2R,3R,4S,5R)-2-(4-Amino-5-phenyl-7H-pyrrolo[2,3-d]pyrimidin-7-yl)-5-(hydroxymethyl)tetrahydrothiophene-3,4-diol] gave a melting point of 102 to 104 °C. The same molecule registered an IC50 with A549 of 7570 nM. Further, the IC50 in the data set on HCT116 worked out at 6350 nM. The molecule also showed an IC50 in the data set on MDA-MB-231 of 8830 nM. This molecule registered an IC50 in the data set with PC-3 of 9210 nM. Further, the IC50 in the data set on SK-HEP-1 came to 7810 nM. This molecule also came in with an IC50 in the data set on SNU638 of 6320 nM. On TRKA, half-maximal inhibition (IC50) required 157 nM and the Ki stood at 314 nM. On CK1δ, this molecule registered an IC50 of 27 nM and a Ki of 27 nM. On DYRK1A, this molecule returned an IC50 of 357 nM and a Ki of 714 nM. Further, on DYRK1B, 288 nM corresponded to half-maximal inhibition (IC50) and the Ki was determined as 288 nM.
In the case of `COc1cccc2c1C(=O)c1c(O)c3c(c(O)c1C2=O)C[C@@](O)(C(=O)CO)C[C@@H]3O[C@H]1C[C@H](N)[C@H](O)[C@H](C)O1` [doxorubicin, reference compound], the IC50 with KM12 stood at 120 nM; with ACHN, 40 nM.
